From PubChem BioAssay AID504367 (Southern Research Specialized Biocontainment Screening …, 2011)
The source made the active and inactive calls.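 How the source made its calls: active means fusion inhibition of 50% or more at any tested concentration; inactive means the rest.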

system: HeLa-CD4-LTR-beta-gal/HL2/3 cell fusion, beta-gal luminescence; assay: inhibitors of X4 HIV-1 Env-mediated cell fusion, dose response, HeLa-CD4-LTR-beta-gal/HL2/3 cells, beta-gal luminescence (AID 504367)

| SMILES | IC50 |
| --- | --- |
| Cc1c2c(=O)n(-c3nc4ccccc4s3)nc-2cc(O)n1Cc1cccs1 | 50.1 µM |
| CS(=O)(=O)C1=NSC2=NC(=O)/C(=C\c3cccn3-c3ccc(Br)cc3)C(=N)N21 | 25.2 µM |
| O=C(O)c1ccc([C@@H]2Nc3ccc(S(=O)(=O)Nc4cccc5ccccc45)cc3[C@@H]3C=CC[C@@H]32)cc1 | 39.4 µM |
| Cc1ccc(-n2cccc2/C=C2/C(=N)N3C(=NC2=O)SN=C3S(C)(=O)=O)cc1C | 21.4 µM |
| CS(=O)(=O)C1=NSC2=NC(=O)/C(=C\c3cccn3-c3cccc(C(F)(F)F)c3)C(=N)N21 | > 100 µM (inactive) |
| Cc1c2c(=O)n(-c3nc4ccccc4s3)nc-2cc(O)n1CCc1cccs1 | > 100 µM (inactive) |
| Cc1c2c(=O)n(-c3nc4ccccc4s3)nc-2cc(O)n1C1CC1 | 60.4 µM |
| O=C(O)c1ccc(C[n+]2c(-c3ccc([N+](=O)[O-])cc3)csc2Nc2ccccc2)cc1 | > 100 µM (inactive) |
| Cc1c2c(=O)n(-c3nc4ccccc4s3)nc-2cc(O)n1Cc1ccncc1 | > 100 µM (inactive) |
| Cc1c2c(=O)n(-c3nc4ccccc4s3)nc-2cc(O)n1Cc1ccccc1Cl | 29.5 µM |
| Cc1c2c(=O)n(-c3nc4ccccc4s3)nc-2cc(O)n1Cc1cccnc1 | > 100 µM (inactive) |
| COc1ccccc1Cn1c(O)cc2nn(-c3nc4ccccc4s3)c(=O)c-2c1C | 42.2 µM |
| Cc1c2c(=O)n(-c3nc4ccccc4s3)nc-2cc(O)n1Cc1ccc(F)cc1 | 55.3 µM |
| CS(=O)(=O)C1=NSC2=NC(=O)/C(=C\c3cccn3-c3cccc(F)c3)C(=N)N21 | 62.7 µM |
| CS(=O)(=O)C1=NSC2=NC(=O)/C(=C\c3cccn3-c3ccc(Cl)cc3)C(=N)N21 | 67.7 µM |
| CS(=O)(=O)C1=NSC2=NC(=O)/C(=C\c3cccn3-c3cccc(Cl)c3)C(=N)N21 | 32.1 µM |
| COc1ccccc1NS(=O)(=O)c1ccc2c(c1)C1C=CCC1C(c1ccc(C(=O)O)cc1)N2 (stereo not drawn) | 18.4 µM |
| Cc1c2c(=O)n(-c3nc4ccccc4s3)nc-2cc(O)n1CCC(C)C | 40 µM |
| CS(=O)(=O)C1=NSC2=NC(=O)/C(=C\c3cccn3-c3cc(Cl)cc(Cl)c3)C(=N)N21 | > 100 µM (inactive) |
| CCc1ccc(-n2cccc2/C=C2/C(=N)N3C(=NC2=O)SN=C3S(C)(=O)=O)cc1 | 46 µM |
| O=C(O)c1ccc(C2Nc3ccc(S(=O)(=O)Nc4cc(Cl)ccc4Cl)cc3C3C=CCC32)cc1 (stereo not drawn) | 36.8 µM |
| O=C(O)c1ccc(C[n+]2c(-c3ccccc3)csc2Nc2ccccc2)cc1 | > 100 µM (inactive) |
| CS(=O)(=O)C1=NSC2=NC(=O)/C(=C\c3cccn3-c3ccc(Cl)c(Cl)c3)C(=N)N21 | 44.5 µM |
| CS(=O)(=O)C1=NSC2=NC(=O)/C(=C\c3cccn3-c3ccc(F)cc3)C(=N)N21 | 58.1 µM |

Second part, the molecule after the results:

| IC50 | SMILES |
| --- | --- |
| 1.66 µM | COc1ccc(-c2ccc(/C=C3\SC(=S)N(CCCC(=O)O)C3=O)o2)cc1 |
| 49.2 µM | COc1ccc(Cn2c(O)cc3nn(-c4nc5ccccc5s4)c(=O)c-3c2C)cc1 |
| 2.47 µM | CCc1ccc(-c2ccc(/C=C3\SC(=S)N(CCCC(=O)O)C3=O)o2)cc1 |
| > 100 µM (inactive) | CCOC(=O)C1=C(C)N=c2sc(=Cc3ccc(OCC(=O)O)cc3)c(=O)n2C1c1ccccc1OC (stereo not drawn) |
| 27.7 µM | CCOC(=O)C1=C(C)N=c2s/c(=C\c3ccc(OCC(=O)O)cc3)c(=O)n2C1c1ccc(OC)c(OCC)c1 (stereo not drawn) |
| 23.3 µM | CCOC(=O)C1=C(c2ccccc2)N=c2s/c(=C\c3ccc(OCC(=O)O)cc3)c(=O)n2C1c1cccc(OC)c1 (stereo not drawn) |
| > 100 µM (inactive) | Nc1sc2ccccc2[n+]1Cc1ccc(C(=O)O)cc1 |
| > 100 µM (inactive) | CCOC(=O)C1=C(C)N=c2sc(=Cc3ccc(OCC(=O)O)cc3)c(=O)n2C1c1ccccc1 (stereo not drawn) |
| 31.8 µM | O=C(O)CCCN1C(=O)/C(=C\c2ccc(-c3cccc(Cl)c3)o2)SC1=S |
| > 100 µM (inactive) | O=C(O)CCCN1C(=O)/C(=C/c2cc3ccccc3o2)SC1=S |
| 50 µM | CCOC(=O)C1=C(C)N=c2s/c(=C\c3ccc(OCC(=O)O)cc3)c(=O)n2C1c1ccc(Cl)cc1 (stereo not drawn) |
| 25.2 µM | O=C(O)CCCN1C(=O)/C(=C\c2ccc(-c3ccc(Cl)cc3)o2)SC1=S |
| > 100 µM (inactive) | COc1cccc(-n2cccc2/C=C2/C(=N)N3C(=NC2=O)SN=C3S(C)(=O)=O)c1 |
| 2.1 µM | O=C(O)CCCN1C(=O)/C(=C/c2ccc(-c3ccc(Cl)c(Cl)c3)o2)SC1=S |
| 77.1 µM | CCOC(=O)C1=C(C)N=c2sc(=Cc3ccc(OCC(=O)O)cc3)c(=O)n2C1c1ccc(F)cc1 (stereo not drawn) |
| 4.6 µM | Cc1ccc(-c2ccc(/C=C3\SC(=S)N(CCCC(=O)O)C3=O)o2)cc1 |
| > 100 µM (inactive) | O=C(O)CCCN1C(=O)/C(=C/c2ccc(-c3cccc(C(F)(F)F)c3)o2)SC1=S |
| > 100 µM (inactive) | CCOC(=O)C1=C(C)N=c2sc(=Cc3ccc(OCC(=O)O)cc3)c(=O)n2C1c1ccc(OC)cc1OC (stereo not drawn) |
| > 100 µM (inactive) | COc1cccc(C2C(C(=O)Nc3ccccc3)=C(C)N=c3sc(=Cc4ccc(OCC(=O)O)cc4)c(=O)n32)c1 (stereo not drawn) |
| > 100 µM (inactive) | O=C(O)CCC(C(=O)O)N1C(=O)/C(=C\c2ccco2)SC1=S (stereo not drawn) |
| 0.47 µM | O=C(O)CCCN1C(=O)/C(=C\c2ccc(-c3ccc(Br)cc3)o2)SC1=S |
| 3.86 µM | O=C(O)CCCN1C(=O)/C(=C\c2ccc(-c3ccc(F)cc3)o2)SC1=S |
| 39.9 µM | Cc1ccc(-n2cccc2/C=C2/C(=N)N3C(=NC2=O)SN=C3S(C)(=O)=O)cc1 |
| 43.6 µM | Cc1c2c(=O)n(-c3nc4ccccc4s3)nc-2cc(O)n1CCc1ccc(O)cc1 |
| > 100 µM (inactive) | COc1ccc(-n2cccc2/C=C2/C(=N)N3C(=NC2=O)SN=C3S(C)(=O)=O)cc1Cl |
| 48.4 µM | CC1=C(C(=O)OC(C)C)C(c2ccc(Cl)cc2)n2c(s/c(=C\c3ccc(OCC(=O)O)cc3)c2=O)=N1 (stereo not drawn) |
| > 100 µM (inactive) | CCOC(=O)C1=C(C)N=c2sc(=Cc3ccc(OCC(=O)O)cc3)c(=O)n2C1c1cc(OC)c(OC)c(OC)c1 (stereo not drawn) |
| 99.9 µM | CCOc1ccc(-n2cccc2/C=C2/C(=N)N3C(=NC2=O)SN=C3S(C)(=O)=O)cc1 |
| 35.9 µM | COc1ccc(CCn2c(O)cc3nn(-c4nc5ccccc5s4)c(=O)c-3c2C)cc1 |
